Source: patent US10123985B2, “Therapeutic strategies for treating mitochondrial disorders” (Whitehead Institute for Biomedical Research, priority 2015, dated 2018)
Entries after “also recorded” stand apart in the source; their conditions may differ.

Legend:
143B CytB cells [1] = assay: Amino acid and TCA cycle metabolite GC-MS analysis, 143B CytB cells; type: cell-based; conditions: AKB withdrawal
Experimental: 143B and 143B CytB cells were seeded at 400,000 cells/well in 6 well dishes overnight. The following day, cells were washed 2 times in PBS and media was changed to proliferation assay media with or without the indicated treatments. After 8 hours, polar metabolites were extracted using 80% methanol in water with 1 μg norvaline per sample. Soluble content was then dried under nitrogen gas. Polar samples were derivatized and measured as detailed in (Lewis). Relative metabolite abundances were determined by integrating ion peak area (Metran) and normalized to norvaline internal extraction standard.

143B CytB cells [2] = assay: GC-MS of AKB and AHB concentration in the media during proliferation assay; type: cell-based; conditions: media of 143B CytB cells proliferating with AKB
Experimental: FIG. 1. Cytochrome B mutant 143B cybrid cells are auxotrophic for oxidized substrates that can regenerate NAD^+. (A) Proliferation rate of 143B CytB cells was determined in the presence or absence of pyruvate. (left) Cells were normalized to cell number at t=0 when media conditions were applied. (B) A major fate of pyruvate is as a substrate of lactate dehydrogenase (LDH) where it accepts electrons from NADH to produce NAD^+ and lactate. (C) α-Ketobutyrate (AKB) can act as an alternative electron acceptor substrate for LDH, yielding NAD^+ α-hydroxybutyrate (AHB). (D) Proliferation rate for 143B CytB cells in the presence or absence of AKB was determined as in (A). (E) Intracellular ratio of NAD^+/NADH was determined in 143B CytB cells in untreated media or in the presence of pyruvate (Pyr) or AKB. (F) The concentration of AKB and AHB in the media was determined by GC-MS analysis for each day of a proliferation assay of 143B CytB cells in the presence of AKB as in (D). […]
Given the chemical structure differences between AKB and pyruvate, they cannot share direct carbon-fates, thus we reasoned that AKB is likely being used predominantly as an electron acceptor and not as a carbon substrate in metabolic pathways. To verify this we measured the consumption rate of AKB and the excretion rate of the reduced product, α-hydroxybutyrate (AHB), formed upon NAD^+ regeneration (FIG. 1C). […]

Jurkat cells = assay: Metabolite profiling (LC/MS) of Jurkat cells; type: cell-based, human; conditions: pyruvate 1 mM
Experimental: LC/MS analyses were conducted on a QExactive benchtop orbitrap mass spectrometer equipped with an Ion Max source and a HESI II probe, which was coupled to a Dionex UltiMate 3000 UPLC system (Thermo Fisher Scientific, San Jose, Calif.). External mass calibration was performed using the standard calibration mixture every 7 days.
Polar metabolites were extracted using 1 ml of ice-cold 80% methanol with 10 ng/ml valine-d8 as an internal standard. After a 10 min vortex and centrifugation for 10 min at 4° C. at 10,000 g, samples were dried under nitrogen gas. Dried samples were stored at −80° C. and then resuspended in 100 μL water; 1 μl of each sample was injected onto a ZIC-pHILIC 2.1×150 mm (5 μm particle size) column (EMD Millipore). Buffer A was 20 mM ammonium carbonate, 0.1% ammonium hydroxide; buffer B was acetonitrile. The chromatographic gradient was run at a flow rate of 0.150 ml/min as follows: 0-20 min.: linear gradient from 80% to 20% B; 20-20.5 min.: linear gradient from 20% to 80% B; 20.5-28 min.: hold at 80% B. The mass spectrometer was operated in fullscan, polarity switching mode with the spray voltage set to 3.0 kV, the heated capillary held at 275° C., and the HESI probe held at 350° C. The sheath gas flow was set to 40 units, the auxiliary gas flow was set to 15 units, and the sweep gas flow was set to 1 unit. The MS data acquisition was performed in a range of 70-1000 m/z, with the resolution set at 70,000, the AGC target at 106, and the maximum injection time at 80 msec. Relative quantitation of polar metabolites was performed with XCalibur QuanBrowser 2.2 (Thermo Fisher Scientific) using a 5 ppm mass tolerance and referencing an in-house library of chemical standards.

[3] = tested on: ETC-defective cybrid cells; assay: [U-13C]-L-glutamine isotope tracing of aspartate in cybrid cells; type: cell-based; conditions: [U-13C]-L-glutamine 7 hours, pyruvate (1 mM)
Experimental: FIG. 19. […] Cell line models of ETC dysfunction were cultured in RPMI (supplemented with uridine) with pyruvate (1 mM) or aspartate (10 mM) for 6 days. Relative cell number was determined by normalizing to the pyruvate-supplemented condition. Representative bright-field micrographs of MERRF, CYTB, and 143B ρ0 cells after 6 days in indicated conditions (right) (mean±SD, n=3, **p<0.05). […] Mass isotopomer analysis of aspartate in wild type, phenformin-treated wild type, and ETC-defective cybrid cells cultured for 7 hours with [U-^13C]-L-glutamine (middle) in the presence or absence of pyruvate (1 mM). The fraction of labeled aspartate from [U-^13C]-L-glutamine is indicated (mean±SD, for n=3, **p<0.05) (bottom). OAA, oxaloacetate. […] Immunoblot analysis of wild type, MERRF, and CYTB cybrid cells expressing sgControl and sgGOT1 (top). Raptor was used as a loading control. […] Relative cell number was determined by normalizing to sgControl expressing cell line (mean±SD, for n=3, **p<0.05). […]
Polar metabolites were extracted using 1 ml of ice-cold 80% methanol with 10 ng/ml valine-d8 as an internal standard. […] Relative quantitation of polar metabolites was performed with XCalibur QuanBrowser 2.2 (Thermo Fisher Scientific) using a 5 ppm mass tolerance and referencing an in-house library of chemical standards.

SMILES	Aspartate intracellular pool size (143B CytB cells [1])	Glutamate intracellular pool size (143B CytB cells [1])	TCA cycle metabolite pool sizes (143B CytB cells [1])	Consumption rate of AKB versus excretion rate of AHB (143B CytB cells [2])	Aspartate synthesis with pyruvate (Jurkat cells; MDH1-null Jurkat cells treated with ETC inhibitors)	Aspartate levels with pyruvate (Jurkat cells; phenformin-treated (10 μM, 24 hours) GOT1-null Jurkat cells)	Aspartate levels with pyruvate (Jurkat cells; phenformin-treated (10 μM, 24 hours) wild type Jurkat cells)	Aspartate synthesis in ETC-defective cybrid cells [3]
CCC(=O)C(=O)O [AKB, α-ketobutyrate]	also decreased	only modestly decreased	drastically lowered	the consumption rate of AKB matched the excretion rate of AHB				
CC(=O)C(=O)O [pyruvate]					did not stimulate aspartate synthesis; also recorded: depends on MDH1	no effect on aspartate	increases cellular aspartate levels in a GOT1-dependent manner; also recorded: restored aspartate levels to normal in phenformin-treated wild type cells	stimulated aspartate synthesis in the ETC-defective cells; also recorded: stimulates aspartate biosynthesis in cybrid cells with ETC dysfunction
